# Assay results from patent publication US5393780A, “4-fluorobiphenyl derivatives” (priority 1993, dated 1995).
# Experiments:
# [1] = Determination of Partition Coefficient (n-octanol/phosphoric acid buffer pH 7.0); type: physicochemical; conditions: P=Co/Cw; for logD: n-octanol/phosphate buffer
# Method: Determination of Partition Coefficient
# The partition coefficient of each of representative compounds synthesized in the above-mentioned Examples was determined in accordance with the method by Hansh et al. (J. Am. Chem. Soc., 86, 5175 (1964)).
# More specifically, the compound to be tested was dissolved in either an n-octanol solution which was saturated with a phosphoric acid buffer solution of pH 7.0 (Solution A) or a phosphoric acid buffer solution of pH 7.0 saturated with n-octanol (Solution B).
# 5 ml of the solution (Solution A or Solution B) in which the compound was dissolved and 5 ml of the solution (Solution B or Solution A) in which the compound was not dissolved were placed in a screw vial tube, and shaken for 30 minutes. This mixed solution was centrifuged for 15 minutes, and was then allowed to stand. The mixed solution was separated into two phases, that is, a water phase and a n-octanol phase.
# The concentration of the compound in the water phase was determined by the UV method, and the concentration of the compound in the n-octanol phase was determined by deducting the concentration of the compound in the water phase from the concentration of the compound in the initially mixed solution (Solution A and Solution B).
# The partition coefficient of the compound was calculated in accordance with the following formula:
# Partition coefficient (P)=Co/Cw
# wherein Co is the concentration of the compound in the n-octanol phase, and Cw is the concentration of the compound in the water phase.
# HMG-CoA Reductase [2] = target: T1, HMG-CoA Reductase (Rattus norvegicus, UniProt P51639); test: biochemical; conditions: read-out: HMG-CoA Reductase Inhibition %
# T1 sequence (P51639 1-887): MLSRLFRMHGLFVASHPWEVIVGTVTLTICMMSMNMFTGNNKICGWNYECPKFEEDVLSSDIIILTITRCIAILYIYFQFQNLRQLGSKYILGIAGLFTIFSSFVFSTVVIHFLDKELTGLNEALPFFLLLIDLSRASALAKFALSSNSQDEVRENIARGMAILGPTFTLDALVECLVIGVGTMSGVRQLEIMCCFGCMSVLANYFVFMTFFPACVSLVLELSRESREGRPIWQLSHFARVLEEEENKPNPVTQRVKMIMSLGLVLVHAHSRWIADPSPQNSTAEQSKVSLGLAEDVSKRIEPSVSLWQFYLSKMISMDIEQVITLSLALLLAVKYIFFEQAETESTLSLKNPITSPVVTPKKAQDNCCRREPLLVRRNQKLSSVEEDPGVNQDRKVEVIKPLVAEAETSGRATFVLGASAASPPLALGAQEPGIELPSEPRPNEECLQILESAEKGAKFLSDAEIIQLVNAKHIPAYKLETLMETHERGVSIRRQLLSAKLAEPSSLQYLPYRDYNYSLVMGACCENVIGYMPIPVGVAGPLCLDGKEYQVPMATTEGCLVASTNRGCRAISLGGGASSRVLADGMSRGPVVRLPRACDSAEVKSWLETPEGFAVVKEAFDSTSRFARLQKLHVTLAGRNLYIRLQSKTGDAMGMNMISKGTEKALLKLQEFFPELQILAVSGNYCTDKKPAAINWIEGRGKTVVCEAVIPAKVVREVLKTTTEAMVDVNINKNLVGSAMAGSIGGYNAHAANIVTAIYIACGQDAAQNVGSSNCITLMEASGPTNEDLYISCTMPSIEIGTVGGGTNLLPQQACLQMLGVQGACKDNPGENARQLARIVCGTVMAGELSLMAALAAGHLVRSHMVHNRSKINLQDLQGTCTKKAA
# Method: Determination of Inhibitory Activity on HMG-CoA Reductase
# The inhibitory effect on HMG-CoA Reductase of each of representative examples of the 4-fluorobiphenyl derivatives prepared in the above-discussed examples was determined in accordance with the method described in Journal of Biological Chemistry (J. Biol. Chem.) Vol. 234, page 2835 (1959).
# biosynthesis of sterol = test: Determination of Inhibition of Sterol Synthesis (14C-acetic acid, liver, after oral dosing); type: in vivo, SD rat; conditions: 14C-acetic acid five hours later
# Method: Determination of Inhibition of Sterol Synthesis
# Representative compounds (0.3 mg/5 ml/kg) suspended in a 5% arabic gum solution were orally given to SD rate weighing 150 to 200 g.
# Five hours later, ^14 C-acetic acid (100 μCi/kg) was intraperitoneally injected, and furthermore one hour later, liver was removed to determine the inhibitory activity of each of the compounds on the biosynthesis of sterol.
# [3] = tested on: liver cells and non-liver cells; conditions: cited from earlier work
# [4] = referred to JAMA (Japanese Edition) October 1991 Supplement, pages 42-47; cited from earlier work
# [5] = cited from earlier work
# cells of smooth muscles = conditions: advantage over pravastatin; cited from earlier work
# cholesterol in the blood = conditions: cited from earlier work
# [6] = literature reports; cited from earlier work
# HMG-CoA Reductase [7] = target: T2, HMG-CoA Reductase (Homo sapiens, UniProt P04035); conditions: cited from earlier work
# T2 sequence (P04035 1-888): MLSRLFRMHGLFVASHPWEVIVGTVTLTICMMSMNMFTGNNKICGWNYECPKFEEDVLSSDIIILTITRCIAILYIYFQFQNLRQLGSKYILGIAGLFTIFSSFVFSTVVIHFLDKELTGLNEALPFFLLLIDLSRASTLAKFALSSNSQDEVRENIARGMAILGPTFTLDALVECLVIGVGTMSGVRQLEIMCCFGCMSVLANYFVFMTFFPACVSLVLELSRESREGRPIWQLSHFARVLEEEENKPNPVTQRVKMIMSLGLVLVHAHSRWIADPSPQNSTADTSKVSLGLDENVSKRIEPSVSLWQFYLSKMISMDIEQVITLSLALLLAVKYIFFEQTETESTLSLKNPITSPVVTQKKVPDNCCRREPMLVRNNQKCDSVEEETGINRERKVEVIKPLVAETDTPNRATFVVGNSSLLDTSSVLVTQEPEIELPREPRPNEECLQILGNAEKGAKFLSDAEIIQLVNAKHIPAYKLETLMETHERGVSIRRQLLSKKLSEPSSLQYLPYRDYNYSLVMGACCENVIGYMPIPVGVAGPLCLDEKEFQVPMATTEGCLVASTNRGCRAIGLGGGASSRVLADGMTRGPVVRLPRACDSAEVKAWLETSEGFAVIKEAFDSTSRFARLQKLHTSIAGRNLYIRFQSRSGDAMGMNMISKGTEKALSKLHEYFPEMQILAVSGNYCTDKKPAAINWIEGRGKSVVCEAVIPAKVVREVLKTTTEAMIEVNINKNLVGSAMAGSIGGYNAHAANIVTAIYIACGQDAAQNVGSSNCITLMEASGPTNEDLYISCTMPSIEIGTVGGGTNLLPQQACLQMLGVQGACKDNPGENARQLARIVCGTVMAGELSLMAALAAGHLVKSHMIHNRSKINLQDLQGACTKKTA
Structure (SMILES),logD [1],inhibition at 0.1 µM (HMG-CoA Reductase [2]),Sterol Synthesis Inhibition % (biosynthesis of sterol; Administered amount 0.3 mg/kg),cholesterol lowering effect (cholesterol in the blood),other results
COCCOCCOc1cc(-c2ccc(F)cc2)c(/C=C/C(O)CC(O)CC(=O)O)c(C(C)C)c1 (centres unmarked),0.519,,,,
CC(C)c1cc(OCc2ccncc2)cc(-c2ccc(F)cc2)c1/C=C/C(O)CC(O)CC(=O)O (centres unmarked),1.48,96%,,,
CC(C)c1cc(OCc2cccnc2)cc(-c2ccc(F)cc2)c1/C=C/C(O)CC(O)CC(=O)O (centres unmarked),1.41,95%,,,
CC(C)c1cc(OCc2ccccn2)cc(-c2ccc(F)cc2)c1/C=C/C(O)CC(O)CC(=O)O (centres unmarked),1.43,95%,,,
CC(C)c1cc(OCCO)cc(-c2ccc(F)cc2)c1/C=C/C(O)CC(O)CC(=O)[O-].[Na+] (centres unmarked),0.114,98%,40%,,
CC[C@H](C)C(=O)O[C@H]1C[C@H](O)C=C2C=C[C@H](C)[C@H](CC[C@@H](O)C[C@@H](O)CC(=O)O)[C@H]21 [Pravastatin],-0.444,88%,,,incorporation into liver / non-liver cells [3]: not incorporated into histoblasts other than those of liver; Partition Coefficient (literature) [4]: 0.34; Sterol Synthesis Inhibition % (biosynthesis of sterol; Administered amount 1 mg/kg): 16%; Partition Coefficient [1]: 0.36; water-solubility / lipid-solubility [5]: highly water-soluble
CCC(C)(C)C(=O)O[C@H]1C[C@@H](C)C=C2C=C[C@H](C)[C@H](CC[C@@H]3C[C@@H](O)CC(=O)O3)[C@H]21 [Simvastatin],,,1%,strong cholesterol lowering effect,cytostatic function with respect to the cells of smooth muscles (cells of smooth muscles): antiarteriosclerosis effect because of its cytostatic function with respect to the cells of smooth muscles; Partition Coefficient (literature) [4]: 75.8; Sterol Synthesis Inhibition % (biosynthesis of sterol; Administered amount 1 mg/kg): 41%; Partition Coefficient ([1]; ring-opened type sodium salt): 74
COCCOc1cc(-c2ccc(F)cc2)c(/C=C/C(O)CC(O)CC(=O)[O-])c(C(C)C)c1.[Na+] (centres unmarked),0.716,96%,30%,,
CC[C@H](C)C(=O)O[C@H]1C[C@@H](C)C=C2C=C[C@H](C)[C@H](CC[C@@H]3C[C@@H](O)CC(=O)O3)[C@H]21 [lovastatin],,,,strong cholesterol lowering effect,side effects [6]: myositis and sleep disorder; incorporation into liver / non-liver cells [3]: transferred into both liver cells and non-liver cells; water-solubility / lipid-solubility [5]: highly lipid-soluble
"CC[C@H](C)C(=O)O[C@H]1CCC=C2C=C[C@H](C)[C@H](CC[C@@H]3C[C@@H](O)CC(=O)O3)[C@H]21 [ML-236B, Mevastatin]",,,,capable of lowering the concentration of cholesterol in the blood,inhibitory effect on HMG-CoA reductase (HMG-CoA Reductase [7]): competitive inhibitory effect on HMG-CoA reductase
